Our source for the IC50 values is US10450260B2, “NO- and H2S-releasing compounds” (RESEARCH FOUNDATION OF THE CITY UNIVERSITY OF NEW YORK, priority 2011, dated 2019).

In the first test the test system is HT-29 human colon cancer cells. Nature of the test: MTT cell growth inhibition, HT-29. The class given is cell-based. As to conditions: Homo sapiens; HT-29, 24 h (Table 5); in combinations the IC50 of ASA with fixed concentrations of SNAP and/or ADT-OH; read-out: IC50 at 24 hours for HT-29 cell growth inhibition. How it is done: HT-29, SW-480 and HCT-15 human colon adenocarcinoma, MIA PaCa-2 and BxPC-3 human pancreatic cancer, LNCAP human prostate cancer, A549 human lung cancer, MCF-7 (estrogen receptor positive), MDA-MB 231 and SK-BR-3 (estrogen receptor negative) human breast cancer, and Jurkats human leukemia cell lines were obtained from American Type Tissue Collection (Manassas, Va.). All cells lines were grown as monolayers except for the Jurkats which were grown in suspension. The pancreatic and breast cancer cells were grown in Dulbecco's modified Eagle's medium, the prostate, Jurkat, SW-480 and HCT-15 colon cells were grown in RPMI 1640 medium, the lung cells were grown in F-12 and the colon HT-29 cells were grown in McCoy 5A. All media were supplemented with 10% fetal calf serum (Invitrogen, Carlsbad, Calif.) penicillin (50 U/ml), and streptomycin (50 μg/ml) (Invitrogen, Carlsbad, Calif.). Cells were seeded on culture dishes at a density of 25×10^3 cells/cm^2 and incubated at 37° C. in 5% CO2 and 90% relative humidity. Single cell suspensions were obtained by trypsinization (0.05% trypsin/EDTA), and cells were counted using a hemocytometer. Viability was determined by the trypan blue dye exclusion method.
Cell growth inhibitory effect of NOSH compounds were measured using a colorimetric MTT assay kit (Roche, Indianapolis, Ind.). Cancer cells were plated in 96-well plates at a density of 50,000 cells/well. The cells were incubated for 24 h with different concentrations of NOSH compounds. After the indicated time, 10 μl of MTT dye (3-[4,5-dimethylthiazol-2-yl]-2,5-diphenyl tetrazolium bromide, 5 mg/ml in phosphate buffered saline), was added to each well, and the plates were incubated for 2 hours at 37° C. Then, the media was aspirated, and add 100 μl of the solubilization solution (10% SDS in 0.01 M HCl) was added to each well to solubilize the formant crystals. The absorbance of the plates was measured on an ELISA reader at a wavelength of 570 nm. Each sample was performed in triplicate, and the entire experiment was repeated three times.
HT-29 human colon cancer cells were obtained from American Type Tissue Collection (Manassas, Va.) and grown as monolayer in McCoy 5A media that was supplemented with 10% fetal calf serum (Invitrogen, Carlsbad, Ca.), penicillin (50 U/ml), and streptomycin (50 μg/ml) (Invitrogen, Carlsbad, Calif.).
Growth inhibition was measured using a colorimetric MTT assay kit (Roche, Indianapolis, Ind.). Proliferation (PCNA) was assessed using an ELISA kit from Calbiochem, (La Jolla, Calif.). Cell cycle phase distributions and apoptosis of control and treated cells were determined as previously described. All methods are described in Chattopadhyay et al., Biochemical Pharmacology, 2012, 83(6), 715-722.
HT-29, SW-480 and HCT-15 human colon adenocarcinoma, MIA PaCa-2 and BxPC-3 human pancreatic cancer, LNCAP human prostate cancer, A549 and H383 human lung cancer, MCF-7, MDA-MB 231 and SK-BR-3 human breast cancer and Jurkat T cell human leukemia cell lines were obtained from American Type Tissue Collection (Manassas, Va.) All cells lines were grown as monolayers except for the Jurkat T cells which were grown as suspension culture. The pancreatic and breast cancer cells were grown in Dulbecco's modified Eagle's medium, the prostate, Jurkat, SW-480 and HCT-15 colon cells were grown in RPMI 1640 medium, the lung cells were grown in F-12 and the colon HT-29 cells were grown in McCoy 5A. All media were supplemented with 10% fetal calf serum (Invitrogen, Carlsbad, Calif.) penicillin (50 U/ml), and streptomycin (50 μg/ml) (Invitrogen, Carlsbad, Calif.). Cells were seeded on culture dishes at a density of 25×10^3 cells/cm^2 and incubated at 37° C. in 5% CO2 and 90% relative humidity. Single cell suspensions were obtained by trypsinization (0.05% trypsin/EDTA), and cells were counted using a hemacytometer. The final DMSO concentration was adjusted in all media to 1%. Viability was determined by the trypan blue dye exclusion method. […]
For the compound `CC(=O)N[C@H](C(=O)O)C(C)(C)SN=O` [SNAP, S-nitroso-N-acetyl-penicillamine, reference compound], the IC50 was found to be 530 ± 45 µM.
On the same count and under the same terms, the figure for `Oc1ccc(-c2cc(=S)ss2)cc1` [ADT-OH, 5-(4-hydroxyphenyl)-3H-1,2-dithiole-3-thione, reference compound] is 26 ± 3 µM.

The test is the same for the next values; noted with them: Homo sapiens; HT-29 colon cancer cells, 24 hours (Table 3); read-out: IC50 at 24 hours for cell growth inhibition.
On to `CC(=O)Oc1ccccc1C(=O)OCCCOO[N+](=O)[O-]` [aliphatic-NO-ASA, 3-(nitroperoxy)propyl 2-acetoxybenzoate, reference compound], for which the IC50 amounted to 750 ± 35 µM.
Still for that read-out and setting: the figure for `CC(=O)Oc1ccccc1C(=O)Oc1ccccc1CO[N+](=O)[O-]` [o-NO-ASA, 2-(acetyloxy)benzoic acid 2-(nitrooxymethyl)phenyl ester, reference compound] is 8 ± 3 µM; for `CC(=O)Oc1ccccc1C(=O)Oc1ccc(-c2cc(=S)ss2)cc1` [HS-ASA, 4-(5-thioxo-5H-1,2-dithiol-3-yl)-phenyl 2-acetoxybenzoate, reference compound] it is 4 ± 0.5 µM.
`CC(=O)Oc1ccccc1C(=O)Oc1cccc(CO[N+](=O)[O-])c1` [m-NO-ASA, 2-(acetyloxy)benzoic acid 3-(nitrooxymethyl)phenyl ester, reference compound]: the IC50 was found to be 185 ± 15 µM.
On to `CC(=O)Oc1ccccc1C(=O)Oc1ccc(CO[N+](=O)[O-])cc1` [p-NO-ASA, 2-(acetyloxy)benzoic acid 4-(nitrooxymethyl)phenyl ester, reference compound], for which the IC50 was found to be 10 ± 2 µM.

What is called IC50 is the concentration at which inhibition is half-maximal.
